PMC7011974, “Benzimidazole derivatives endowed with potent antileishmanial activity” (Journal of Enzyme Inhibition and Medicinal Chemistry, 2017)
Like-named read-outs stand apart in the source and are kept apart here.

Tests used:
[1] = system: human microvascular endothelial cell line (HMEC-1); experiment: Cytotoxicity on HMEC-1 cells (MTT); format: cell-based; details: for IC50: cytotoxicity, HMEC-1 cells, MTT; for SI L. infantum (IC50 HMEC-1/IC50 L. infantum) / SI L. tropica (IC50 HMEC-1/IC50 L. tropica): selectivity index
L. tropica promastigotes = experiment: Antileishmanial activity on L. tropica promastigotes (MTT); format: cell-based, Leishmania tropica; details: for IC50: 72 h, read-out: IC50 (µM) L. tropica
[2] = system: L. infantum promastigotes; experiment: Antileishmanial activity on L. infantum promastigotes (MTT); format: cell-based, Leishmania infantum; details: for IC50: Leishmania infantum, 72 h, read-out: IC50 (µM) L. infantum
[3] = Leishmania tropica, promastigotes, MTT, starred values mean of two experiments
[4] = promastigotes of L. tropica and/or L. infantum
[5] = fold potency versus miltefosine
[6] = percent of amphotericin B potency, calculated for each experiment
[7] = promastigotes, MTT, starred values mean of two experiments

| SMILES | IC50 (L. tropica promastigotes; [3]) [µM] | melting point [°C] | IC50 amph. B ×100/IC50 compd., L. tropica (L. tropica promastigotes; [6]) | IC50 ([2]; promastigotes, MTT) [µM] | IC50 amph. B ×100/IC50 compd., L. infantum [2, 6] | IC50 ([1]; Homo sapiens) [µM] | Antileishmanial activity in words (L. tropica promastigotes; [4]) | SI L. tropica (IC50 HMEC-1/IC50 L. tropica) [1] | Ratio IC50 miltef./IC50 compd., L. tropica (L. tropica promastigotes; [5]) | Ratio IC50 miltef./IC50 compd., L. infantum [2, 5] | further results |
| --- | --- | --- | --- | --- | --- | --- | --- | --- | --- | --- | --- |
| CCCCCCCCCCCc1nc2ccccc2[nH]1 [Compound 1, 2-Undecyl-1 H-benzimidazole] | > 16.2 | 108.1 to 109.3 | – | – | – | 51 ± 7.5 | inactive | – | – | – | – |
| CCCCCCCCCCCc1nc2ccccc2n1C [Compound 2, 1-Methyl-2-undecyl-1H-benzimidazole] | – | 40.8 to 43.4 | – | – | – | – | – | – | – | – | – |
| CCCCCCCCCCCc1n(C)c2ccccc2[n+]1C.[I-] [Compound 3, 1,3-Dimethyl-2-undecyl-1 H-benzimidazol-3-ium iodide] | 1.68 | 157.3 to 161.3 | 4.9 | 0.28 ± 0.07 | 55.7 | 2.64 ± 0.49 | – | 1.57 | 25.8 | 111.6 | SI L. infantum (IC50 HMEC-1/IC50 L. infantum) [1]: 9.43 |
| CCCCCCCCCCCCCCCc1nc2ccccc2[nH]1 [Compound 6, 2-Pentadecyl-1 H-benzimidazole] | 5.05 ± 0.01 | 88.8 to 94.2 | 1.6 | 10.1 ± 4.9 | 0.93 | > 37 | – | – | 8.6 | 3.1 | – |
| CCCCCCCCCCCCCCCc1nc2ccccc2n1C [Compound 7, 1-Methyl-2-pentadecyl-1H-benzimidazole] | > 58 | 64.2 to 65.6 | – | > 58 | – | – | inactive | – | – | – | – |
| CCCCCCCCCCCCCCCc1n(C)c2ccc([N+](=O)[O-])cc2[n+]1C.[I-] [Compound 10, 1,3-Dimethyl-5-nitro-2-pentadecyl-1 H-benzimidazol-3-ium iodide] | 1.4 ± 0.58 | 154 to 156 | 7.35 | 0.96 ± 0.17 | 12.3 | 2.11 ± 0.45 | – | 1.51 | 30.9 | 32.6 | SI L. infantum (IC50 HMEC-1/IC50 L. infantum) [1]: 2.20 |
| CCCCCCCCCCCCCCCc1n(C)c2cc(Cl)c(Cl)cc2[n+]1C.[I-] [Compound 11, 5,6-Dichloro-1,3-dimethyl-2-pentadecyl-1 H-benzimidazol-3-ium iodide] | 1.06 ± 0.54 | 200 to 203 | 9.1 | 0.84 ± 0.13 | 14.1 | 1.68 ± 0.75 | – | 1.58 | 40.8 | 37.2 | SI L. infantum (IC50 HMEC-1/IC50 L. infantum) [1]: 2.00 |
| CCCCCCCCCCCCCCCc1nc2ccccc2n1C[c-]1cccc1.[Fe+2].c1cc[cH-]c1 [Compound 16, 1-(Ferrocenylmethyl)-2-pentadecyl-1 H-benzimidazole] | – | – | – | – | – | – | inactive | – | – | – | IC50 [1]: > 35 µM; IC50 (L. tropica promastigotes; [7]): > 35 µM |
| CCCCCCCCCCCCCCCc1n(C[c-]2cccc2)c2ccccc2[n+]1C.[Fe+2].[I-].c1cc[cH-]c1 [Compound 17, 1-(Ferrocenylmethyl)-3-methyl-2-pentadecyl-1 H-benzimidazol-3-ium iodide] | – | – | 3.34 | – | – | – | – | 0.35 | 12.2 | – | IC50 [1]: 1.26 ± 0.24 µM; IC50 (L. tropica promastigotes; [7]): 3.56 ± 0.84 µM |
| CCCC(CCC)c1nc2ccccc2n1C [Compound 19, 2-(Heptan-4-yl)-1-methyl-1 H-benzimidazole] | 30 ± 10.3 | – | 0.40 | – | – | > 74 | – | >2.43 | 1.4 | – | – |
| CCN(CC)CCCn1c(Cc2ccc(OC)cc2)nc2cc(C(C)=O)ccc21 [Compound 25] | – | – | – | – | – | – | – | – | – | – | Antileishmanial activity in words (L. tropica promastigotes): inactive; IC50 (L. tropica promastigotes; Leishmania tropica): > 51 µM; IC50 [2]: > 51 µM |
| COc1ccc(Cc2nc3cc(C(C)=O)ccc3n2C[C@@H]2CCCN3CCCC[C@H]23)cc1 [Compound 31] | – | – | – | – | – | – | – | – | – | – | IC50 amph. B ×100/IC50 compd., L. tropica (L. tropica promastigotes): 0.74; Ratio IC50 miltef./IC50 compd., L. tropica (L. tropica promastigotes): 1.8; IC50 (L. tropica promastigotes; Leishmania tropica): 23.9 ± 7.78 µM; IC50 amph. B ×100/IC50 compd., L. infantum [2]: 0.73; Ratio IC50 miltef./IC50 compd., L. infantum [2]: 1.1; IC50 [2]: 28.5 ± 4.47 µM |

The next lines start with results.

| IC50 (L. tropica promastigotes; [3]) [µM] | melting point [°C] | IC50 amph. B ×100/IC50 compd., L. tropica (L. tropica promastigotes; [6]) | IC50 ([2]; promastigotes, MTT) [µM] | IC50 amph. B ×100/IC50 compd., L. infantum [2, 6] | SMILES | IC50 ([1]; Homo sapiens) [µM] | Antileishmanial activity in words (L. tropica promastigotes; [4]) | SI L. tropica (IC50 HMEC-1/IC50 L. tropica) [1] | Ratio IC50 miltef./IC50 compd., L. tropica (L. tropica promastigotes; [5]) | Ratio IC50 miltef./IC50 compd., L. infantum [2, 5] | further results |
| --- | --- | --- | --- | --- | --- | --- | --- | --- | --- | --- | --- |
| 0.78 | 223.3 to 225.3 | 10.5 | 0.61 ± 0.05 | 25.6 | CCCCCCCCCCCc1n(Cc2ccccc2)c2ccccc2[n+]1Cc1ccccc1.[Cl-] [Compound 5, 1,3-Dibenzyl-2-undecyl-1H-benzimidazol-3-ium chloride] | 1.38 ± 0.17 | – | 1.77 | 55.5 | 51.3 | SI L. infantum (IC50 HMEC-1/IC50 L. infantum) [1]: 2.26 |
| 0.87 ± 0.16 | 116 to 118 | 11.9 | 1.32 ± 0.3 | 8.9 | CCCCCCCCCCCCCCCc1n(C)c2ccc(C(F)(F)F)cc2[n+]1C.[I-] [Compound 9, 1,3-Dimethyl-2-pentadecyl-5-trifluoromethyl-1 H-benzimidazol-3-ium iodide] | 1.86 ± 0.34 | – | 2.14 | 49.7 | 23.7 | SI L. infantum (IC50 HMEC-1/IC50 L. infantum) [1]: 1.41 |
| > 73 | 192.2 to 192.9 | – | – | – | CCCC(CCC)c1n(C)c2ccccc2[n+]1C.[I-] [Compound 20, 1,3-Dimethyl-2-(heptan-4-yl)-1 H-benzimidazol-3-ium iodide] | > 73 | inactive | – | – | – | – |
| > 50 | 94 to 98 | – | > 50 | – | Cn1c(Cc2ccc(Cl)cc2)[n+](C)c2ccccc21.[I-] [Compound 21, 2-(4-Chlorobenzyl)-1,3-dimethyl-1 H-benzimidazol-3-ium iodide] | – | inactive | – | – | – | – |
| 33.9 ± 12.6 | 60 | 0.30 | 16.7 ± 7.07 | 0.70 | Cn1c(Cc2ccc(Cl)cc2)[n+](C)c2cc(C(F)(F)F)ccc21.[I-] [Compound 22, 2-(4-Chlorobenzyl)-1,3-dimethyl-5-trifluoromethyl-1 H-benzimidazol-3-ium iodide] | – | – | – | 1.3 | 1.9 | – |
| 23.7 ± 8.54 | – | 0.75 | 28.5 ± 8.66 | 0.73 | CC(=O)c1ccc2c(c1)nc(Cc1ccccc1)n2C[C@@H]1CCCN2CCCC[C@H]12 [Compound 29] | – | – | – | 1.8 | 1.1 | – |
| > 27 | 165 to 169 | – | > 27 | – | C[n+]1c(-c2ccc(Cl)cc2)n(C[C@@H]2CCC[N+]3(C)CCCC[C@H]23)c2ccc(C(F)(F)F)cc21 (stereo partly drawn) [Compound 39, 2-(4-Chlorophenyl)-3-methyl-1-{[5-methylammonio-(1 S,9aR)-octahydroquinolizin-1-yl]-methyl}-5-trifluoromethyl-1 H-benzimidazol-3-ium diiodide] | – | inactive | – | – | – | – |
